Measured values taken from patent publication US20130053336A1, “TREATMENT OF CHLAMYDIACEAE INFECTIONS BY MEANS OF BETA-LACTAMS” (priority 2010, published 2013).
≈ marks a conversion by molar mass, not a printed value. Counter-ions that a name gives are not always drawn. Like-named read-outs stand apart in the source and are kept apart here.

Columns and labels:
Assay type in all cases: cell-based
[1] = system: Chlamydia trachomatis serovar L2; assay: Minimum bactericidal concentration (titration of infectious ability of bacteria from treated infected cells)
Procedure: (§1) It was first sought to verify whether other molecules of the β-lactam family could induce in vitro the same abnormal and noninfectious forms of Chlamydia trachomatis as that produced in the presence of penicillin G. Titration experiments were performed on the infectious ability of bacteria from infected cells treated with different β-lactams. Cytotoxicity and minimum bactericidal concentration (MBC) were determined for each of these molecules. It was also verified whether all of these β-lactams have bactericidal action on persistent forms of Chlamydia trachomatis produced in vitro under the effect of IFN-γ.

[2] = system: Cells Infected with Chlamydia trachomatis serovar L2; assay: Cytotoxicity of β-lactams
Procedure: as §1

[3] = system: Chlamydia trachomatis L2 serovar 16S rRNA; assay: 16S rRNA expression by RT-PCR; conditions: 100 hpi
From the text: HeLa cells were infected with the Chlamydia trachomatis L2 serovar and treated or not treated with penicillin G at 3 hpi. At 100 hpi, the cells were collected and the RNA extracted carefully to avoid DNA contamination. Half of the isolated RNA was used for reverse transcription. The RNA and cDNA were amplified by PCR with primers for 16S (bacterial) and 18S (eukaryotic) rRNA in order to study bacterial activity and to verify cDNA quality and quantity. PCR of the RNA is used to verify the absence of DNA contamination. It also indicates the absence of contaminant in the PCR. […] Roughly 1×10^5 HeLa cells were infected and exposed or not exposed to penicillin G, as described above. At 100 hpi, total RNA were isolated using the RNeasy Plus Mini Kit (Qiagen, Hilden, Germany). The samples were treated with DNase I for 1 hour at 37° C. The enzyme was then denatured at 70° C. for 10 min. The RNA were reverse-transcribed into cDNA using random hexamer primers and AffinityScript Multiple Temperature Reverse Transcriptase (Agilent, Santa Clara, Calif., USA) and by following the manufacturer's instructions for RT-PCR. cDNA and RNA were amplified by PCR with Tag Polymerase (Invitrogen, Carlsbad, Calif., USA) in order to verify the absence of DNA contamination. The primers used to amplify 16S rRNA are: A semi-quantitative analysis of the PCR products was carried out by agarose gel electrophoresis and UV detection.

[4] = system: Chlamydia trachomatis serovar L2; assay: Development and morphology of inclusions in infected HeLa cells (microscopy); conditions: infected HeLa cells, videomicroscopy / culture for 4 days
Procedure: HeLa cells were infected with Chlamydia trachomatis serovar L2 and treated with IFN-γ (100 ng/ml), penicillin G (100 U/ml) or gentamicin ([…]). At various times after infection (hours post-infection (hpi)), the cells were fixed and stained with an antibody against Chlamydia sp. (green in the original figure) and with Hoechst (blue in the original figure). The infected HeLa cells treated with penicillin G have abnormal bodies that grow and that are phenotypically quite different from those formed during treatment with IFN-γ. The bodies formed with penicillin G are appreciably different from “classic” persistent bodies. To examine the effects of penicillin G on cell infection with Chlamydia, the host cells were cultivated up to 70% confluence without antibiotics, and then were infected with C. trachomatis strain […]. muridarum at 1 IFU. The infections were carried out at 37° C. for 90 minutes with centrifugation, followed by a washing of extracellular bacteria. At 3 hpi, after the washings, the culture medium was replaced with medium containing either 25 μg/ml gentamicin or 1-100 IU/ml penicillin G. At regular intervals after treatment with penicillin G, the cultures were either fixed in 4% neutral buffered PFA for 30 minutes to be prepared for confocal microscopy, or collected to determine the infectivity of the progeny bacteria, according to the previously described method (Verbeke, P. et al. PLoS Pathog 2:e45, 2006). HeLa cells cultured in monolayers on slides were infected with serovar L2 with an IFU of 1, as described above (Verbeke, P. et al. PLoS Pathog 2:e45, 2006). Three hours after the infection, the medium was removed and replaced with culture medium containing 500 IU/ml (final concentration) recombinant human IFN-γ.

[5] = system: Chlamydia trachomatis inclusions; assay: Fusion of lysosomes with inclusions (cathepsin D, LysoTracker, confocal microscopy); conditions: HeLa, 24 hpi
[6] = minimum bactericidal concentration, read-out: MBC
[7] = second line of the MBC cell, read-out: MBC, bound in parentheses below the value
[8] = printed as a concentration bound

Molecule | MBC [1, 6] | MBC [1, 7] | Cytotox. ([2]; given as 0) | further results
CC1(C)S[C@@H]2[C@H](NC(=O)[C@H](N)c3ccc(O)cc3)C(=O)N2[C@H]1C(=O)O [Amoxicillin trihydrate] | 0.3 µM | > 0.1 µM | 0 | –
CC1=C(C(=O)O)N2C(=O)[C@@H](NC(=O)[C@H](N)c3ccc(O)cc3)[C@H]2SC1 [Cefadroxil] | 10 µM (≈ 3.63 µg/mL) | > 3 µM | 0 | –
C=CC1=C(C(=O)O)N2C(=O)[C@@H](NC(=O)/C(=N\OCC(=O)O)c3csc(N)n3)[C@H]2SC1 [Cefixime trihydrate] | 300 µM | > 100 µM | – | Cytotox. [2, 8]: >400 µM
Cc1onc(-c2ccccc2Cl)c1C(=O)N[C@@H]1C(=O)N2[C@@H]1SC(C)(C)[C@@H]2C(=O)O [Cloxacillin sodium salt hydrate] | 3 µM | > 1 µM | 0 | –
C[C@@H](O)[C@H]1C(=O)N2C(C(=O)O)=C(SCCN=CN)C[C@H]12 [Imipenem monohydrate] | 300 µM | > 100 µM | 0 | –
CC1(C)S[C@@H]2[C@H](/N=C/N3CCCCCC3)C(=O)N2[C@H]1C(=O)O [Mecillinam] | 3 µM (≈ 0.976 µg/mL) | > 1 µM | 0 | –
CC1(C)S[C@@H]2[C@H](NC(=O)COc3ccccc3)C(=O)N2[C@H]1C(=O)O [Penicillin V potassium salt] | 0.3 µM | > 0.1 µM | 0 | –
O=C(O)[C@H]1/C(=C/CO)O[C@@H]2CC(=O)N21 [Potassium clavulanate] | 1 µM | > 0.3 µM | – | Cytotox. [2, 8]: >50 µM
CC1(C)[C@H](C(=O)O)N2C(=O)C[C@H]2S1(=O)=O [Sulbactam sodium] | – | – | – | MBC [1]: 10 µM; MBC ([1]; read-out: MBC, bound in parentheses below the value): > 3 µM
C[C@]1(Cn2ccnn2)[C@H](C(=O)O)N2C(=O)C[C@H]2S1(=O)=O [Tazobactam sodium salt] | 30 µM | > 10 µM | 0 | –
gentamicin | – | – | – | 16S rRNA expression in infected cells [3]: amplified
IFN-γ: Recombinant human IFN-γ, a well-known inducer of persistence (protein, UniProt P01579 24-161, looked up) Interferon gamma: QDPYVKEAENLKKYFNAGHSDVADNGTLFLGILKNWKEESDRKIMQSQIVSFYFKLFKNFKDDQSIQKSVETIKEDMNVKFFNSNKKKRDDFEKLTNYSVTDLNVQRKAIHELIQVMAELSPAAKTGKRKRSQMLFRG | – | – | – | growth of the bacterial inclusions [4]: remains constant; localization of cathepsin D in inclusions [5]: excluded from normal and persistent inclusions; 16S rRNA expression in infected cells [3]: amplified
